Laboratory results published in paper PMC4979471 (Cell Death Discovery, 2015).
Where two headings read alike, the source gives them in different places.

Assays:
Assay in all cases: Kinase selectivity, P33-radiolabeled assay
Format in all cases: biochemical
Details in all cases: 10 μM ATP
ULK2 = target: T1, ULK2 (Homo sapiens, UniProt Q8IYT8)
T1 construct: purchased Reaction Biology Corp
T1 sequence (Q8IYT8 1-1036): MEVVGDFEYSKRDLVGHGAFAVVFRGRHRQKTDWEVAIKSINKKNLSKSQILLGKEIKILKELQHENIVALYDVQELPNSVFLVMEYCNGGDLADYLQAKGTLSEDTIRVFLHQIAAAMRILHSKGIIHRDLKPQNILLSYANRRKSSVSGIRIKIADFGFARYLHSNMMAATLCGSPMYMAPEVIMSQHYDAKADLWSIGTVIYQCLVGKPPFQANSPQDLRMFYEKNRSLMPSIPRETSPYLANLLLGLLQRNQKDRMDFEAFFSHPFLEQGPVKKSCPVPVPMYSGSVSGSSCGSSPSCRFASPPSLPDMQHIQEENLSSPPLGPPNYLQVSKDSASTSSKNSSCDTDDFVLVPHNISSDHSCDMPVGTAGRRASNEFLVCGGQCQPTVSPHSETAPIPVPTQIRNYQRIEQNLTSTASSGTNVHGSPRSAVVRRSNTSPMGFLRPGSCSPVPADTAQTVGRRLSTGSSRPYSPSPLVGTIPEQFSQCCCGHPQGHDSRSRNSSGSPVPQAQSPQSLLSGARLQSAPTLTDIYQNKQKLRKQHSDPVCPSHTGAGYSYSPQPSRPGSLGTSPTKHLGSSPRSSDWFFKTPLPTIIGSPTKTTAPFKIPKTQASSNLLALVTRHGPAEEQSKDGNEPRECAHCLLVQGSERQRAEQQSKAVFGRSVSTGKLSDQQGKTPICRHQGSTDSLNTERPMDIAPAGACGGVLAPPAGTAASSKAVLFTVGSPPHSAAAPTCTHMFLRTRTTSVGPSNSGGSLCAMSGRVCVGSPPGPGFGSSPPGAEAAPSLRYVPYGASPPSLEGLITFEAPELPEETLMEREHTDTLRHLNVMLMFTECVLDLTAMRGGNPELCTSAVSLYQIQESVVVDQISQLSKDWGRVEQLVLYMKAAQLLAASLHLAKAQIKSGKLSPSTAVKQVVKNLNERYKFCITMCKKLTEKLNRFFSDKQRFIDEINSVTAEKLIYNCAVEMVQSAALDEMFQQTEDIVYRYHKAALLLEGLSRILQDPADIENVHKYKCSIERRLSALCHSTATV
Procedure, shortened: (§1)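 ATP at 10 μM; test article at 10 μM, single point, two replicates. Output is activity as % of DMSO.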

KHS/MAP4K5 = target: T2, KHS/MAP4K5 (Homo sapiens, UniProt Q9Y4K4)
T2 construct: purchased Reaction Biology Corp
T2 sequence (Q9Y4K4 whole entry): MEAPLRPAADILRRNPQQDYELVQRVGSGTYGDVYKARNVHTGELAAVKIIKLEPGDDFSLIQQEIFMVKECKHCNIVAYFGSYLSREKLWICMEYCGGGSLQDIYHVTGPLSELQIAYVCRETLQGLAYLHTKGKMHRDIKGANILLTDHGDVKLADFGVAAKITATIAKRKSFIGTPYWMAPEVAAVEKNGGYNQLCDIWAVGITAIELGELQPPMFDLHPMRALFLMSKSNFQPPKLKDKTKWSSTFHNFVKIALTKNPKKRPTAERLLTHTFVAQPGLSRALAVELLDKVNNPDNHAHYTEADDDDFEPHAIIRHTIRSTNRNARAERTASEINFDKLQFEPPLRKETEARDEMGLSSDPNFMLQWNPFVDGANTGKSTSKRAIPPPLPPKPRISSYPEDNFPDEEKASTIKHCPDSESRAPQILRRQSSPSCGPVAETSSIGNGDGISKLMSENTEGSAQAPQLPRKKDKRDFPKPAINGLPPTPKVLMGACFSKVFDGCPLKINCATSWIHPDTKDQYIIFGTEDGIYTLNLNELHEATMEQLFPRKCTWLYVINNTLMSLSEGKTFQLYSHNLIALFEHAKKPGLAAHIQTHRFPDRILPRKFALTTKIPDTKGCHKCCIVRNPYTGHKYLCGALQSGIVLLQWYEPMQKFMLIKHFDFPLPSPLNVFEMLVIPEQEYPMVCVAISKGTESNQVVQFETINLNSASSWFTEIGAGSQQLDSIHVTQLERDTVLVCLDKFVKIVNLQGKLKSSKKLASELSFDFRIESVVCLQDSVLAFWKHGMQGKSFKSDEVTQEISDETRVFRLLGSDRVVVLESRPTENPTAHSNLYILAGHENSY
Procedure, shortened: as §1

TAOK2/TAO1 = target: T3, TAOK2/TAO1 (Homo sapiens, UniProt Q9UL54)
T3 construct: purchased Reaction Biology Corp
T3 sequence (Q9UL54 1-1235): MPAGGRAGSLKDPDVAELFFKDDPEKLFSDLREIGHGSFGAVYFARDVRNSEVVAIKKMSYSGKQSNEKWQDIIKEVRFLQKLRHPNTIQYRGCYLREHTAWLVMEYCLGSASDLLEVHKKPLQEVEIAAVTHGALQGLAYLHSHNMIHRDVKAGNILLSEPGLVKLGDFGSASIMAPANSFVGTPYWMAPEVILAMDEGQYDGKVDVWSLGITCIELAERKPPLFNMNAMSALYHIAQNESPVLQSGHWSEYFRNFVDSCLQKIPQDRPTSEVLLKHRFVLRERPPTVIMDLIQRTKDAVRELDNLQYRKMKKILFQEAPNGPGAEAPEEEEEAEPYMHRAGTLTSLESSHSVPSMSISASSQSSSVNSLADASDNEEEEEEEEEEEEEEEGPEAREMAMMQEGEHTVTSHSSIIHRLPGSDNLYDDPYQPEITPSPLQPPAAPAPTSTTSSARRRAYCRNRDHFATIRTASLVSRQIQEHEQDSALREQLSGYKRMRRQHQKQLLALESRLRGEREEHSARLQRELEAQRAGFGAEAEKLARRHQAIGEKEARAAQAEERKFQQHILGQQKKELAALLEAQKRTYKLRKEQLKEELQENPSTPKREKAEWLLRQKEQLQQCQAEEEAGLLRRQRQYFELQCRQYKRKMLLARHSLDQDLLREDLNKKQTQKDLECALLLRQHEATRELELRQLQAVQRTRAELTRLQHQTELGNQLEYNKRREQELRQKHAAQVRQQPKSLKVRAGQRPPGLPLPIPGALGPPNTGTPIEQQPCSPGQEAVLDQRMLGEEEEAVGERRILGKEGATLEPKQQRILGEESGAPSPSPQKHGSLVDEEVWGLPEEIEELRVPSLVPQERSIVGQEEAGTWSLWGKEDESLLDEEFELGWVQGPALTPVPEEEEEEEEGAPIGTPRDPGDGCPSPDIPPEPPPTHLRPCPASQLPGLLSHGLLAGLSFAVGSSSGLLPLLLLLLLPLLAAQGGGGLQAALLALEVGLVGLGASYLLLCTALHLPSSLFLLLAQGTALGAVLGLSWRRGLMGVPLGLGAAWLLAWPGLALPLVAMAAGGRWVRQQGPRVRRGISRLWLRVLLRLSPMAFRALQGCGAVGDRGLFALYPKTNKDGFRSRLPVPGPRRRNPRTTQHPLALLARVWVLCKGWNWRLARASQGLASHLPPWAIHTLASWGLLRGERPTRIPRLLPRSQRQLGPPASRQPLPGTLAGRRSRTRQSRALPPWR
Procedure, shortened: as §1

MNK2 = target: T4, MNK2 (Homo sapiens, UniProt Q9HBH9)
T4 construct: purchased Reaction Biology Corp
T4 sequence (Q9HBH9 whole entry): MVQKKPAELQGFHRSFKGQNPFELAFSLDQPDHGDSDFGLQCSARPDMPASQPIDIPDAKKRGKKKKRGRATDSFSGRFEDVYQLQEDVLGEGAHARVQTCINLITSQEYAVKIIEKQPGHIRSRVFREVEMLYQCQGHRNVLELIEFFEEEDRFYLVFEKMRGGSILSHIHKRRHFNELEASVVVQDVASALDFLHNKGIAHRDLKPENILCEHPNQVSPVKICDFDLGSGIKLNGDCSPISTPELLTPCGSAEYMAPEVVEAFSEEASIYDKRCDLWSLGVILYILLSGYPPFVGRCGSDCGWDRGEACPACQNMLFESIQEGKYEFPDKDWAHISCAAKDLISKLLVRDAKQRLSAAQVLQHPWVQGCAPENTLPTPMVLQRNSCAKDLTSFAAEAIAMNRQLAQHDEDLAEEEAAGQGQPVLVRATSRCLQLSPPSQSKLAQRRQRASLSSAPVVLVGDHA
Procedure, shortened: as §1

SRPK2 = target: T5, SRPK2 (Homo sapiens, UniProt P78362)
T5 construct: purchased Reaction Biology Corp
T5 sequence (P78362 whole entry): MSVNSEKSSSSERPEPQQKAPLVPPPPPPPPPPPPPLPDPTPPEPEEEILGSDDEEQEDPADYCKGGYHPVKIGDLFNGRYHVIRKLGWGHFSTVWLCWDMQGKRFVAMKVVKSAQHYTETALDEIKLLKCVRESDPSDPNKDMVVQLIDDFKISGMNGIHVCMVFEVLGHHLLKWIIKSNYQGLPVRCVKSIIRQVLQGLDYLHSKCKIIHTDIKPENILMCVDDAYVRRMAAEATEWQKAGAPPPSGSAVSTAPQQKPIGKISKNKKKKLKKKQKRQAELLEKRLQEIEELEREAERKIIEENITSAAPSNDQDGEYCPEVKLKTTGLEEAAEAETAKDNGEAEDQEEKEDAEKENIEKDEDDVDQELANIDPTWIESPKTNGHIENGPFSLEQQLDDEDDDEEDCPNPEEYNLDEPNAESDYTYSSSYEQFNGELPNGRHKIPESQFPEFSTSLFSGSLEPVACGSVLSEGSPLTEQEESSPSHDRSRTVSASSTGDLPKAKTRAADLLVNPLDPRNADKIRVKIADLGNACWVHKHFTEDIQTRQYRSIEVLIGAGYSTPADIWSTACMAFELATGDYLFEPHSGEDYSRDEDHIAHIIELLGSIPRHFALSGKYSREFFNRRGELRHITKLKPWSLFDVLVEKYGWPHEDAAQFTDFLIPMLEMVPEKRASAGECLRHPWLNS
Procedure, shortened: as §1

PKCb2 = target: T6, PKCb2 (Homo sapiens, UniProt P05771)
T6 construct: purchased Reaction Biology Corp
T6 sequence (P05771 1-673 isoform P05771-2): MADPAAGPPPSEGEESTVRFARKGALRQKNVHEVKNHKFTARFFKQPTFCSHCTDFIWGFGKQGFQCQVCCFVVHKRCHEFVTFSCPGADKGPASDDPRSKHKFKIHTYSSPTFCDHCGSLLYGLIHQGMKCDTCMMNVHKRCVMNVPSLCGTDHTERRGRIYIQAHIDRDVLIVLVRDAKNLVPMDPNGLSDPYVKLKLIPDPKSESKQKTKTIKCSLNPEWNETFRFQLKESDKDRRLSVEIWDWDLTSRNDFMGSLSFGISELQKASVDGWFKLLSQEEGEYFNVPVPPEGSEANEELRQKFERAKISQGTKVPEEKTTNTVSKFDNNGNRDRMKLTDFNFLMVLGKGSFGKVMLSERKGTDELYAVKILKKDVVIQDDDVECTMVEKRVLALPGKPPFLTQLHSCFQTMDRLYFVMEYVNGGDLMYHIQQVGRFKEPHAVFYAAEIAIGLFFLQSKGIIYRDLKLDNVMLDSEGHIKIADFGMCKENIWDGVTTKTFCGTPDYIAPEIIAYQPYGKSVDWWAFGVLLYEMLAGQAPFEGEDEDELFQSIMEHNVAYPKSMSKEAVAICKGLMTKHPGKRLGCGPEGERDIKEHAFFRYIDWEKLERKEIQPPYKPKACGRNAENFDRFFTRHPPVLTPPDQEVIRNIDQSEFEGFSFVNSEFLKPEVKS
Procedure, shortened: as §1

SYK = target: T7, SYK (Homo sapiens, UniProt P43405)
T7 construct: purchased Reaction Biology Corp
Procedure, shortened: as §1

[1] = read-out: % Enzyme Activity (relative to DMSO controls) AVG
[2] = read-out: % Enzyme Activity (relative to DMSO controls) Data 1
[3] = read-out: % Enzyme Activity (relative to DMSO controls) Data 2

SMILES: CC(C)(C)C(=O)N1N=CC[C@H]1c1ccccc1 [GSK′963]
- remaining activity at 10 µM (ULK2; [1]): 99.7%
- remaining activity at 10 µM (ULK2; [2]): 99.8%
- remaining activity at 10 µM (ULK2; [3]): 99.5%
- remaining activity at 10 µM (KHS/MAP4K5; [1]): 93.8%
- remaining activity at 10 µM (KHS/MAP4K5; [2]): 91.7%
- remaining activity at 10 µM (KHS/MAP4K5; [3]): 96%
- remaining activity at 10 µM (TAOK2/TAO1; [1]): 95.6%
- remaining activity at 10 µM (TAOK2/TAO1; [2]): 97%
- remaining activity at 10 µM (TAOK2/TAO1; [3]): 94.2%
- remaining activity at 10 µM (MNK2; [1]): 109%
- remaining activity at 10 µM (MNK2; [2]): 107%
- remaining activity at 10 µM (MNK2; [3]): 111%
- remaining activity at 10 µM (SRPK2; [1]): 102%
- remaining activity at 10 µM (SRPK2; [2]): 102%
- remaining activity at 10 µM (SRPK2; [3]): 102%
- remaining activity at 10 µM (PKCb2; [1]): 105%
- remaining activity at 10 µM (PKCb2; [2]): 105%
- remaining activity at 10 µM (PKCb2; [3]): 106%
- remaining activity at 10 µM (SYK; [1]): 102%
- remaining activity at 10 µM (SYK; [2]): 106%
- remaining activity at 10 µM (SYK; [3]): 97.6%
